Experimental data taken from patent US20230346765A1, “METHODS OF TREATING XANTHINE OXIDASE-RELATED DISEASES WITH NIFLUMIC ACID AND DERIVATIVES THEREOF” (Baylor College of Medicine, priority 2020, published 2023).
Entries after “also recorded” stand apart in the source; their conditions may differ.

What was measured:
[1] = test system: allantoxanamide-treated mice; assay: Serum uric acid in acute hyperuricemia mouse model, allantoxanamide-treated (Example 4); type: in vivo, C57BL/6 mice; settings: 50 mg/kg oral gavage once
Protocol: Adult C57BL/6 mice (15-25 g, 6-8 weeks old) were injected intraperitoneally (i.p.) with allantoxanamide at 100 mg/kg in 0.5% sodium carboxymethyl cellulose (CMC-Na) in a volume of 0.1 ml/10 g mouse body weight, to increase the serum uric acid level. Then the mice received a test compound at a concentration of 50 mg/kg in 1.0% polyethylene glycol 400 (PEG-400 in a volume of 0.1 ml/10 g mouse body weight), via oral gavage. Positive control mice received allopurinol at the same concentration as the test compound after i.p. injection of allantoxanamide. The negative control mice received PEG400 only after i.p. injection of allantoxanamide. Blood samples were collected through facial vein at 3 hours and 23 hours after the oral gavage (one time treatment). The blood was allowed to clot for 1 hour at room temperature and then centrifuged at 2350×g for 4 minutes to obtain serum. The serum was kept on ice and assayed immediately. Serum uric acid was determined using the phosphotungstate method, as known to those of skill in the art.
Allopurinol was used as a positive control. Allantoxanamide is a potent uricase inhibitor. […] Animal numbers used in this experiments [Negative control (baseline)=11; allantoxanamide=10, allopurinol (positive control)=4; niflumic acid=6; NFA-impurity E=6; talniflumate=6 and ethylniflutnate=6].

[2] = test system: uricase −/− mice; assay: Serum uric acid in chronic hyperuricemia model, drug in drinking water; type: in vivo
Protocol: Serum uric acid (SUA) levels in uricase −/− mice were used to probe the effects of treatment with drinking water containing allopurinol, DHNB, and niflumic acid (NFA). Under the maintenance of allopurinol, adult uricase−/− mice show relatively low SUA (2-4 mg/dL). […] For the current experiments, the allopurinol water was stopped and normal water was supplied to uricase−/− mice for one week; and then uricase−/− mice were treated with DHNB (150 mg/L) or NFA (150 mg/L) in drinking water. Additionally, uricase−/− mice were given allopurinol (150 mg/L) as a positive control, while normal water was given for a negative control. All drug/waters were refreshed every week. Serum uric acid (SUA) levels of treated and control mice were determined 1-2 weeks, 4-6 weeks or 8-10 weeks after the treatment (see FIG. 10). Mouse blood (100˜200 μL) was taken via facial vein at the scheduled time point. The blood was allowed to clot for 1 hour at room temperature and then centrifuged at 2350 g for 4 minutes to obtain serum. The serum was kept on ice and assayed immediately by the tungsten phosphate method, as known to those of skill in the art.

[3] = test system: allantoxanamide-treated mice; assay: Hypouricemic effect in allantoxanamide induced hyperuricemic mice (Example 3); type: in vivo, C57BL/6 mice; settings: 50 mg/kg oral gavage once; 1.5, 3 and 23 hours; p<0.05
Protocol: A hyperuricemia mouse model was used. Allantoxanamide, a potent uricase inhibitor, was used to induce hyperuricemia in mice in this study. Briefly, adult C57BL/6 mice (15-25 g. 6-8 weeks old) were injected intraperitoneally (i.p.) with allantoxanamide at 100 mg/kg or 200 mg/kg in 0.5% sodium carboxymethyl cellulose (CMC-Na) in a volume of 0.1 ml/10 g mouse body weight, to increase the serum uric acid level. The mice then received the test compound morniflumate at a concentration of 50 mg/kg in 1.0% polyethylene glycol 400 (PEG400 in a volume of 0.1 ml/10 g mouse body weight), via oral gavage. Positive control mice received allopurinol at the same concentration as test compound after i.p. injection of allantoxanamide. The negative control mice received PEG400 only after i.p, injection of allantoxanamide. Blood samples were collected through the facial vein at 1,5 hours, 3 hours, and 23 hours after the oral gavage. The blood was allowed to clot for 1 hour at room temperature and then centrifuged at 2350×g for 4 minutes to obtain serum. The serum was kept on ice and assayed immediately. Serum uric acid was determined using the phosphotungstate method, as known to those of skill in the art.

[4] = test system: uricase −/− mice; assay: Serum uric acid in chronic hyperuricemia model, drug in solid chow diet; type: in vivo; settings: for SUA: 250 mg/Kg food, 6-8 weeks; for SUA levels versus regular chow control: 250 mg/kg food, 6 to 8 weeks, p<0.001
Protocol: An analogous study was performed to investigate the effects on SUA in uricase −/− mice treated with solid chow diet formulated with NFA, DHNB, and allopurinol. NFA, DHNB or allopurinol was formulated into solid chow diet (250 mg/kg food, LabDiet® 5V5R, ½″ pellet; Irradiated) from the company (Test Diet, St. Louis, MO and Lab Supply, Inc). Allopurinol water was stopped for uricase−/− mice, while normal water was supplied during experiments. Uricase−/− mice (1-2 months age, male and female), were given special solid chow die including NFA, DHNB or allopurinol (250 mg/kg food). In separate mice, special solid chow diet containing allopurinol (250 mg/kg food) was given for a positive control and regular solid chow diet was given for a negative control. Blood samples were obtained and processed at 6 or 8 weeks after the treatment (see FIG. 11). Serum uric acid was determined using the tungsten phosphate method.

[5] = molecular target: T1, Xanthine oxidase from bovine milk (Bos taurus, UniProt P80457); assay: XO inhibition assay, cell-free, spectrophotometric monitoring of uric acid formation at 295 nm; type: biochemical; settings: for type of inhibition / Ki: Lineweaver-Burk plot; for Ki: read-out: inhibitor constant (Ki); for inhibition of XO compared among 25 compounds and with allopurinol: each compound at 20 μM; for Vmax of XO: in the presence of different concentrations of the inhibitor; for initial rate of uric acid formation with longer pre-incubation times with XO: pre-incubated with XO for varying times, then xanthine added
T1 construct: Xanthine oxidase from bovine milk; purchased Sigma Chemical Co. (St. Louis, MO); host or cells: bovine milk
From the text: Xanthine oxidase from bovine milk, xanthine, allopurinol, niflumic acid (NFA), ethyl niflumate, 2-(3-chloro-5-(trifluoromethyl)-2-pyridylthio)pyridine-3-carboxylic acid, 2-[3-(trifluoromethyl)phenoxy]nicotinic acid, clonixin, flunixin, flufenamic acid, indomethacin, naproxen, diclofenac, aspirin, ibuprofen, talniflumate, 6-phenylamino-nicotinic acid, 2-phenylamino-nicotinic acid, N-phenylanthranilic acid, mefenamic acid, tolfenamic acid, meclofenamic acid, floctafenic acid, and dimethyl sulfoxide (DMSO) were obtained from Sigma Chemical Co. (St. Louis, MO). Morniflumate was purchased from Toronto Research Chemicals, Inc. (North York, Canada).
The uric acid absorbance at 295 nm was followed and the intensity data were collected every 30 seconds for 10 minutes. The initial rate of uric acid formation was generated for the reaction and converted to XO activity as 100% without any inhibitor (negative control). The inhibitory effect of NFA on XO activity was calculated as compared with the negative control (DMSO).
The formation of uric acid during the oxidation of xanthine by XO in the absence of NFA was recorded (see FIG. 2A). Uric acid formation was monitored as the absorbance at 295 nm over a period of 0-10 minutes during the oxidation of xanthine. The corresponding data were recorded for the oxidation of xanthine by XO in the presence of 10 μM NFA over a period of 0-10 minutes (see FIG. 2B).
Enzyme kinetics analysis of NFA—The inhibition kinetics of NFA on XO was determined by using the Lineweaver-Burk plot (see FIG. 3A). […] The maximum velocity (Vmax) and Michaelis-Menten constant of XO were determined in the presence of different concentrations of NFA (see FIG. 3B).
Dose-dependent effects—The dose-dependent effects on XO inhibition by NFA, NFA impurity E (labeled as “Impurity E”), flunixin, clonixin, and flufenamic acid were studied (see FIG. 5). Varying concentrations (0-40 μM) of each compound were pre-incubated with 20 nM of XO. Allopurinol was used as a positive control and DMSO was used as a negative control.
The inhibition kinetics of NFA impurity E on XO was determined by using the Lineweaver-Burk plot (see FIG. 7A). […] The maximum velocity (Vmax) and Michaelis-Menten constant of XO was determined in the presence of different concentrations of NFA […] (see FIG. 7B).
XO (20 nM) was pre-incubated with NFA, allopurinol or a combination of NFA and allopurinol for 1 minute in a phosphate buffer ([…] pH 7.2), followed by the addition of […] xanthine to start the reaction. XO activity was analyzed by measuring the production of uric acid.

[6] = Stability of NFA during pre-incubation with XO (absorbance at 287 nm); type: physicochemical; settings: incubated with XO for 0 to 47 hours
[7] = 150 mg/L in drinking water, 1-2 weeks
[8] = 150 mg/L in drinking water, 4-6 weeks
[9] = 150 mg/L in drinking water, 8-10 weeks

T1 sequence (P80457 whole entry): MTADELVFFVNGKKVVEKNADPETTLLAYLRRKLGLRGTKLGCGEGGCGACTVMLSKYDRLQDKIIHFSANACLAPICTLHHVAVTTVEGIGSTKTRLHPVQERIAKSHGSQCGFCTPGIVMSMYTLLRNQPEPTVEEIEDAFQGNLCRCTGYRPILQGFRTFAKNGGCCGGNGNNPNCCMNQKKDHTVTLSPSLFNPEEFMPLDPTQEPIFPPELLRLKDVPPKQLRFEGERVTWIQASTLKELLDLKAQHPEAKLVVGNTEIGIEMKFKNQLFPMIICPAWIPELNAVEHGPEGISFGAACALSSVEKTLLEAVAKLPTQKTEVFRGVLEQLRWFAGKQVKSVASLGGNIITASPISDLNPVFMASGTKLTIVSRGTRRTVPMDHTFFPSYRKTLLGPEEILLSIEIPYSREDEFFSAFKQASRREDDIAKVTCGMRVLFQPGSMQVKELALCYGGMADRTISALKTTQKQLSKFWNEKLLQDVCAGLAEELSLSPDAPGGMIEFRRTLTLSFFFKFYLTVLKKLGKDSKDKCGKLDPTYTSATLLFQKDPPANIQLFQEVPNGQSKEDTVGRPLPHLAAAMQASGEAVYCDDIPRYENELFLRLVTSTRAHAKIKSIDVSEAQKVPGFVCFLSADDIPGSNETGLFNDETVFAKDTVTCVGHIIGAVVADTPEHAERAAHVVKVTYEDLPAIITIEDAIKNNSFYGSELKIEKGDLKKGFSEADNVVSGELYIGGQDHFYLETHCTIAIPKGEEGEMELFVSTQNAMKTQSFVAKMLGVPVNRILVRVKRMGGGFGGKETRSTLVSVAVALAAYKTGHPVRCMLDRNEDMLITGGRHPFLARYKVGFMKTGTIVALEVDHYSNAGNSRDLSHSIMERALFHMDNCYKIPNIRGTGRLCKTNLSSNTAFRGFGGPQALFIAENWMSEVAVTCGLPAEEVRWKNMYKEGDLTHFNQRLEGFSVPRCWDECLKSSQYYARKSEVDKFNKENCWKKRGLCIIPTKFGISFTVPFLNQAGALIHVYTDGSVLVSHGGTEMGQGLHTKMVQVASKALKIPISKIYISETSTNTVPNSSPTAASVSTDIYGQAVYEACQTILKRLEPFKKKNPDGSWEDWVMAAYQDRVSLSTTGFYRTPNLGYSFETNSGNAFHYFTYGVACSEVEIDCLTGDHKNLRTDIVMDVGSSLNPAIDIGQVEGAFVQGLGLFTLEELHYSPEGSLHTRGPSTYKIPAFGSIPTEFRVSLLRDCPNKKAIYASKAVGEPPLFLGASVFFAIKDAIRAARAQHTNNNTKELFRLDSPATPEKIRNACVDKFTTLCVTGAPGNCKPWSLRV

Row | Compound | SUA levels versus allantoxanamide control ([1]; 3-hour time point) | SUA levels versus allantoxanamide control ([1]; 23-hour time point) | SUA [2, 7] [mg/dL] | SUA [2, 8] [mg/dL] | SUA [2, 9] [mg/dL] | SUA [4] [mg/dL] | SUA levels versus regular chow control [4] | further results
1 | Oc1ncnc2[nH]ncc12 [Allopurinol, allopurinol] | significantly reduced SUA levels | significantly reduced SUA levels | 3.34 ± 0.87 | 3.45 ± 0.49 | 4.28 ± 0.80 | 4.33 ± 1.15 | significantly reduced SUA levels | SUA under maintenance of allopurinol ([2]; adult uricase−/− mice, maintenance allopurinol water): 2 to 4 mg/dL; SUA levels versus allantoxanamide control [3]: significantly reduced SUA levels
2 | O=Cc1cc(O)c(O)c([N+](=O)[O-])c1 [DHNB, 3,4-dihydroxy-5-nitrobenzaldehyde] | – | – | 5.37 ± 1.06 | 5.73 ± 0.76 | 5.76 ± 0.81 | 5.91 ± 1.30 | significantly reduced SUA levels | –
3 | O=C(O)c1ccc(Nc2cccc(C(F)(F)F)c2)nc1 [NFA impurity E] | significantly reduced SUA levels | significant effect | – | – | – | – | – | dose-dependent XO inhibition, rank ([5]; 0-40 μM pre-incubated with 20 nM XO): most potent amongst each of the compounds tested; type of inhibition [5]: mixed-type inhibition; Ki [5]: 30 nM; inhibition of XO compared among 25 compounds and with allopurinol [5]: most potent inhibitor amongst the compounds tested; also recorded: most effectively inhibit XO activity; Vmax of XO [5]: 0.044 µM/s; initial rate of uric acid formation with longer pre-incubation times with XO [5]: did not change
4 | O=C(O)c1cccnc1Nc1cccc(C(F)(F)F)c1 [Niflumic acid, niflumic acid] | significantly reduced SUA levels | significant effect | 5.47 ± 1.21 | 6.50 ± 0.64 | 3.89 ± 0.20 | 5.17 ± 1.28 | significantly reduced SUA levels | SUA levels versus control mice ([2]; 150 mg/L in drinking water, all three time points, p<0.001): significantly reduced SUA levels; effect of pre-incubation with XO on stability [6]: no effect on the stability; IC50 ([5]; 20 nM XO, read-out: IC50, inhibitory effect on XO activity): 2750 nM; type of inhibition [5]: mixed-type inhibition; Ki [5]: 368 nM; relative enzymatic activity ([5]; at 20 μM): approximately 20%; XO relative activity ([5]; at lower concentrations (≤3.3 μM)): 45%; inhibition of XO compared among 25 compounds and with allopurinol ([5]; listed as NFA): inhibitory effect similar to that of allopurinol; also recorded: most effectively inhibit XO activity; Vmax of XO [5]: 0.04 µM/s; initial rate of uric acid formation with longer pre-incubation times with XO [5]: did not change
5 | CCOC(=O)c1cccnc1Nc1cccc(C(F)(F)F)c1 [ethylniflumate, ethyl niflumate] | significantly reduced SUA levels | – | – | – | – | – | – | –
6 | Cc1c(Nc2ncccc2C(=O)O)cccc1C(F)(F)F [flunixin] | – | – | – | – | – | – | – | inhibition of XO compared among 25 compounds and with allopurinol [5]: decreased its XO inhibitory activity
7 | O=C(OCCN1CCOCC1)c1cccnc1Nc1cccc(C(F)(F)F)c1 [morniflumate, Morniflumate] | – | – | – | – | – | – | – | SUA levels versus allantoxanamide control [3]: significantly reduced SUA levels
8 | O=C1OC(OC(=O)c2cccnc2Nc2cccc(C(F)(F)F)c2)c2ccccc21 (centres unmarked) [talniflumate] | significantly reduced SUA levels | significant effect | – | – | – | – | – | –
